Results from patent US20260070922A1, “PYRAZOLE AND IMIDAZOLE DERIVATIVES AS DUAL OREXIN AND KAPPA-OPIOID RECEPTORS MODULATORS COMPOSITION, METHODS FOR TREATING NEUROLOGICAL AND PSYCHIATRIC DISORDERS” (HAGER BIOSCIENCES, LLC, priority 2022, published 2026).

Key:
[1] = biological target: T1, human k-opioid receptor (kOR) (Homo sapiens, UniProt P41145); experiment: Human k-opioid (KOP) receptor (agonist radioligand [3H]U-69593) binding assay, transfected RBL cell membranes; conditions: read-out: KOR % Inh. @ 1 uM
T1 construct: expressed in transfected cells; host or cells: RBL cells (membrane homogenates)
T1 sequence (P41145 whole entry): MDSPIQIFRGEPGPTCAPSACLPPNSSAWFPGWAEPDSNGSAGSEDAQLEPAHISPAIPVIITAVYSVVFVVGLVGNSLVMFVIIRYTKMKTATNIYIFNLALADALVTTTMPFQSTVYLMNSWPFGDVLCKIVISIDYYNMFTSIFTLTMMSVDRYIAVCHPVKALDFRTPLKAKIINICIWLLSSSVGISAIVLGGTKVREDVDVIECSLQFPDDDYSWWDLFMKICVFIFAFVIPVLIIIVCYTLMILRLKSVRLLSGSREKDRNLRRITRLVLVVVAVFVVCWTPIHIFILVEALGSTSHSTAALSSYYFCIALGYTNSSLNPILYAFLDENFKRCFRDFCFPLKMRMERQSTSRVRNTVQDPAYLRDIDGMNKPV
Experimental: Human k-Opioid (KOP) Receptor (Agonist Radioligand) Binding Assay
Purpose: Evaluation of the affinity of compounds for the human k-opioid receptor in transfected RBL cells determined in a radioligand binding assay.
Experimental protocol: Cell membrane homogenates (about 80 μg protein) are incubated for 60 min at 22° C. with 0.5 nM [3H]U-69593 in the absence or presence of the test compound in a buffer containing 50 mM Tris-HCl (pH 7.4), 10 mM MgCl2 and 1 mM EDTA. Nonspecific binding is determined in the presence of 10 μM naloxone. Following incubation, the samples are filtered rapidly under vacuum through glass fiber filters ([…], Packard) presoaked with 0.3% PEI and rinsed several times with ice-cold 50 mM Tris-HCl using a 96-sample cell harvester (Unifilter, Packard). The filters are dried then counted for radioactivity in a scintillation counter (Topcount, Packard) using a scintillation cocktail (Microscint 0, Packard). The results are expressed as a percent inhibition of the control radioligand specific binding. The standard reference compound is U-50488, which is tested in each experiment at several concentrations to obtain a competition curve from which its IC50 is calculated.

[2] = biological target: T2, human orexin-2 receptor (OX2R) (Homo sapiens, UniProt O43614); experiment: In vitro orexin antagonism assay: intracellular calcium measurement (FLIPR), orexin-A 3 nM as agonist; type: cell-based; conditions: for IC50: first value of IC50/Kb cell; for inhibition at 1 µM: read-out: OX2R, % Inh. @ 1 uM; for Kb: second value of IC50/Kb cell
T2 construct: expressed in transfected cells; host or cells: CHO cells (G418 selection)
T2 sequence (O43614 1-444): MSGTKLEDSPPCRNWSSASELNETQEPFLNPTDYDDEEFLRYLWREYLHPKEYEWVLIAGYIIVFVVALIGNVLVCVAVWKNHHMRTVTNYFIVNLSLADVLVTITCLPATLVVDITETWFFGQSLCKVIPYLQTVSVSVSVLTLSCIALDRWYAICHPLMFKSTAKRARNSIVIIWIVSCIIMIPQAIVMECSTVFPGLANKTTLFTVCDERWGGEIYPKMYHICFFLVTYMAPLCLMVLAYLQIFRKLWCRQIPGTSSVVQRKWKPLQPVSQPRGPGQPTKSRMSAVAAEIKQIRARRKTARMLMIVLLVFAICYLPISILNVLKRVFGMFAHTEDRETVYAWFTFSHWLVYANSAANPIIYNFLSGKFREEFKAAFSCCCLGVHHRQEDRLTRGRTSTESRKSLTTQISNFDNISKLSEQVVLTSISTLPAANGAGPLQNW
Procedure, shortened: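 Fluorescence peak on 3 nM orexin-A challenge, read by FLIPR and compared with vehicle, yields IC50 (geometric mean when repeated; may be normalized to an on-plate reference). Antagonists were added 120 min beforehand to fluo-4-loaded recombinant CHO cells expressing human OX1R or OX2R.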

[3] = biological target: T3, Orexin type 1 (OX1R) receptor (Homo sapiens, UniProt O43613); experiment: as above; type: cell-based; conditions: for IC50: first value of IC50/Kb cell; for inhibition at 1 µM: read-out: OX1R, % Inh. @ 1 uM; for Kb: second value of IC50/Kb cell
T3 construct: expressed in transfected cells; host or cells: CHO cells (G418 selection)
T3 sequence (O43613 1-425): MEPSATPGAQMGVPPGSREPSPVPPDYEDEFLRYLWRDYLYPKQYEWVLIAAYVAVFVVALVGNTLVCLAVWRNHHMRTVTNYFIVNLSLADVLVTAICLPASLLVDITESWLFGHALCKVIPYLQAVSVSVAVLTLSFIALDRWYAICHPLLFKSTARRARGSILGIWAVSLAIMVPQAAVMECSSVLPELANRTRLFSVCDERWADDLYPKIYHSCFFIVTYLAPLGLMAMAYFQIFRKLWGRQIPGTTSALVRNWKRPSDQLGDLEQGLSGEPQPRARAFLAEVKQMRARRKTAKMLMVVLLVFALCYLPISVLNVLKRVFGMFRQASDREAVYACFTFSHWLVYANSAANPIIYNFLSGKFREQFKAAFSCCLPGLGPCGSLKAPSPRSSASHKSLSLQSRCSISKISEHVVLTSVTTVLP
Procedure, shortened: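 CHO cells expressing the human orexin receptor were loaded with 3 μM fluo-4 AM plus 5 mM probenecid, then exposed to antagonist for 120 min before 3 nM orexin-A (final) was added on a FLIPR.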

| Structure (SMILES) | inhibition at 1 µM [1] [%] | IC50 [2] [nM] | inhibition at 1 µM [2] [%] | Kb [2] [nM] | IC50 [3] [nM] | inhibition at 1 µM [3] [%] | Kb [3] [nM] |
| --- | --- | --- | --- | --- | --- | --- | --- |
| O=C(c1nc2ccccn2c1-c1ccccc1)N1[C@@H]2CC[C@@H](C2)[C@H]1COc1ccc(C(F)(F)F)cn1 [Example 125] | 7 | 20 | 57 | 3 | 190 | 93 | 41 |
| O=C(c1nc2ccccn2c1-c1ccccc1)N1[C@H](Cn2ccc(-c3ccc(F)cn3)n2)C[C@@H]2C[C@@H]21 [Example 126] | 10 | – | 24 | – | 17 | 99 | 4 |
| O=C(c1nc2ccccn2c1-c1ccccc1)N1CCC[C@H]1Cc1nc(-c2ccc(F)cn2)no1 [Example 127] | 17 | – | 31 | – | 5 | 100 | 1 |
| O=C(c1nc2ccccn2c1-c1ccccc1)N1CCC[C@H]1Cc1nc(-c2ccccn2)no1 [Example 128] | 19 | – | 17 | – | 7 | 100 | 1 |
| O=C(c1nn2c(c1-c1ccccc1)COCC2)N1CCC[C@H]1Cn1ccc(-c2ccccc2)n1 [Example 129] | 7 | 240 | 88 | 41 | 6 | 100 | 1 |
| O=C(c1nn2c(c1-c1ccccc1)OCCC2)N1CCC[C@H]1Cn1ccc(-c2ccccc2)n1 [Example 130] | 53 | 110 | 98 | 19 | 9 | 100 | 2 |
| O=C(c1c(-c2ncccn2)nn2ccccc12)N1CCC[C@H]1Cn1ccc(-c2ccccc2)n1 [Example 131] | 27 | 68 | 91 | 12 | 4 | 100 | 1 |
| O=C(c1c(-c2ccccn2)nn2ccccc12)N1CCC[C@H]1Cn1ccc(-c2ccccc2)n1 [Example 132] | 35 | 16 | 98 | 3 | 4 | 100 | 1 |
| O=C(c1c(-c2ccccc2)nn2cccnc12)N1CCC[C@H]1Cn1ccc(-c2ccccc2)n1 [Example 133] | 44 | 83 | 81 | 14 | 4 | 99 | 1 |
| O=C(c1nn2c(c1-c1ccccc1)COCC2)N1CCC[C@H]1Cn1ccc(-c2ccccn2)n1 [Example 134] | 0 | – | 44 | – | 12 | 100 | 3 |
| O=C(c1nn2c(c1-c1ccccc1)OCCC2)N1CCC[C@H]1Cn1ccc(-c2ccccn2)n1 [Example 135] | 22 | 660 | 71 | 110 | 4 | 100 | 1 |

The next lines start with the values.

| inhibition at 1 µM [1] [%] | IC50 [2] [nM] | inhibition at 1 µM [2] [%] | Kb [2] [nM] | IC50 [3] [nM] | inhibition at 1 µM [3] [%] | Kb [3] [nM] | Structure (SMILES) |
| --- | --- | --- | --- | --- | --- | --- | --- |
| 26 | 3 | 74 | 0.5 | 9 | 99 | 1 | O=C(c1nn2cccnc2c1-c1ccccc1)N1CCC[C@H]1Cn1ccc(-c2ccccc2)n1 [Example 136] |
| 9 | 490 | 52 | 85 | 5 | 99 | 1 | O=C(c1nn2cccnc2c1-c1ccccc1)N1CCC[C@H]1Cn1ccc(-c2ccccn2)n1 [Example 137] |
| 0 | 490 | 62 | 84 | 9 | 100 | 2 | O=C(c1c(-c2ncccn2)nn2ccccc12)N1CCC[C@H]1Cn1ccc(-c2ccccn2)n1 [Example 138] |
| 0 | 63 | 82 | 11 | 8 | 100 | 2 | O=C(c1c(-c2ccccn2)nn2ccccc12)N1CCC[C@H]1Cn1ccc(-c2ccccn2)n1 [Example 139] |
| 14 | 190 | 59 | 32 | 4 | 100 | 1 | O=C(c1c(-c2ccccc2)nn2cccnc12)N1CCC[C@H]1Cn1ccc(-c2ccccn2)n1 [Example 140] |
| 40 | – | 33 | – | 5 | 100 | 1 | O=C(c1nn2c(c1-c1ccccc1)COCC2)N1CCC[C@H]1COc1ccc(C(F)(F)F)cn1 [Example 141] |
| 3 | – | 31 | – | 210 | 98 | 45 | C[C@@]1(COc2ccc(C(F)(F)F)cn2)CCCN1C(=O)c1nn2ccccc2c1-c1ccccc1 [Example 143] |
| 4 | – | 13 | – | 250 | 98 | 53 | C[C@@]1(COc2ccc(C(F)(F)F)cn2)CCCN1C(=O)c1nc2ccccn2c1-c1ccccc1 [Example 144] |
| 12 | – | 5 | – | 270 | 96 | 56 | C[C@@]1(COc2ccc(C(F)(F)F)cn2)CCCN1C(=O)c1nn2c(c1-c1ccccc1)COCC2 [Example 145] |
| 0 | – | 27 | – | 350 | 99 | 74 | C[C@@]1(COc2ccc(C(F)(F)F)cn2)CCCN1C(=O)c1nn2cccnc2c1-c1ccccc1 [Example 146] |
| 2 | – | 25 | – | 43 | 100 | 9 | C[C@@]1(COc2ccc(C(F)(F)F)cn2)CCCN1C(=O)c1c(-c2ccccn2)nn2ccccc12 [Example 147] |
| 8 | – | 19 | – | 120 | 98 | 26 | C[C@@]1(COc2ccc(C(F)(F)F)cn2)CCCN1C(=O)c1c(-c2ncccn2)nn2ccccc12 [Example 148] |
| 28 | – | 13 | – | 570 | 89 | 120 | C[C@@]1(Cn2ccc(-c3ccccn3)n2)CCCN1C(=O)c1nc2ccccn2c1-c1ccccc1 [Example 149] |
| 16 | – | 11 | – | 340 | 97 | 72 | C[C@@]1(Cn2ccc(-c3ccccn3)n2)CCCN1C(=O)c1nn2ccccc2c1-c1ccccc1 [Example 150] |
| 7 | – | 34 | – | 90 | 99 | 19 | C[C@@]1(COc2ccc(C(F)(F)F)cn2)CCCN1C(=O)c1c(-c2ccccc2)nn2ccccc12 [Example 151] |
